Source: patent publication US20240343666A1, “PERINAPHTHENONE COMPOUND AND USE THEREOF” (INSTITUTE OF MEDICINAL BIOTECHNOLOGY, CHINESE ACADEMY OF …, priority 2021, published 2024)

Target: TRIM25 (Homo sapiens, UniProt Q14258)
Assay type: cell-based
Parameters: endogenous in cells

Sequence of TRIM25 (Q14258 whole entry, species assumed): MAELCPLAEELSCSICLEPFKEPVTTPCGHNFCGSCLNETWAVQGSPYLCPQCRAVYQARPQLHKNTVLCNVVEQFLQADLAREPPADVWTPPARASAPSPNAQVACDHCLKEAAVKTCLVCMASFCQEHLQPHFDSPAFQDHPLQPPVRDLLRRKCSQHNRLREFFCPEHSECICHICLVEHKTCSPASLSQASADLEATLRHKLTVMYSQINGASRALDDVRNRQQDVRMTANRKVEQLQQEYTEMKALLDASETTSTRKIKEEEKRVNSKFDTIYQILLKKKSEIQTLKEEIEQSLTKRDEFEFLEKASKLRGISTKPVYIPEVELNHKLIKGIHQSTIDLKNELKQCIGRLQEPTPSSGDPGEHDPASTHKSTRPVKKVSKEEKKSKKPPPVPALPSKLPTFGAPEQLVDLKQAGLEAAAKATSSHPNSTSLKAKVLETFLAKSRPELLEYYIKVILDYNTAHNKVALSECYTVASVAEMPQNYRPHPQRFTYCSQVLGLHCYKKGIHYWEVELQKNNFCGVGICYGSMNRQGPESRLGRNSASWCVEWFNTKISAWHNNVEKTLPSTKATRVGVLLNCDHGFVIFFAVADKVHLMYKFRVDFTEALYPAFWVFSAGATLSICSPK

Compound: C/C(=C\CC/C(C)=C/C[C@]1(O)C(=O)c2c(O)cc(C)c3c(O)c(C)c(O)c(c23)C1=O)CC/C=C(\CO)CC[C@@H](O)C(C)(C)O [Compound C1]
- Anti-influenza activity after TRIM25 knockdown: significantly affected
- Anti-influenza activity on overexpression of TRIM25 in TRIM25 knockout cell line: restore the anti-influenza activity of compound C1 to a normal cell level
